From patent US20250281478A1, “METHODS FOR PREVENTING OR TREATING KIDNEY DISEASES” (JEAMOON BEIJING CO., LTD., priority 2022, published 2025)

Tests used:
[1] = tested on: mice with adenine-induced renal failure; experiment: Survival of mice with adenine-induced renal failure; type: in vivo, C57BL/6N mice; conditions: for Survival Rate (%): started 1 week after start of continued 0.25% adenine diet, end of experiment; for Count after Drug Administration (surviving mice): 12 at enrollment
Experimental: • 1. Experimental Animals: C57BL/6N, 8 weeks old, SPF grade, male. • 2. Experimental Drugs: • LY2922470 (Shanghai Taoshu Biotechnology Co., Ltd.) • TAK875 (Shanghai Taoshu Biotechnology Co., Ltd.)
1) Preparation of TAK875: A total of 27 mg of TAK875 powder was accurately weighed using an analytical balance and dissolved in 9 mL of 0.8% CMC-Na solution. The mixture was sonicated for 5 minutes to form a 3 mg/mL white suspension. The suspension was stored at 4° C. for later use.
2) Preparation of LY2922470: A total of 80 mg of LY2922470 yellow crystals was added to 200 μL of DMSO to form a clear yellow solution. The solution was gradually added in batches to 10 mL of 0.8% CMC-Na solution. After heating and sonication for 5 hours, an 8 mg/mL white suspension of LY2922470 was obtained. The suspension was stored at 4° C. for later use.
Eight-week-old male C57BL/6N mice were acclimatized for one week and then randomly divided into six groups. Except for the control group, all mice were fed a 0.25% adenine-containing diet for modelling. The control group received a normal diet. The mice had free access to food. One week after model induction, mice in each group were orally administered the corresponding drug once daily in the afternoon, according to their group assignment. The control group and the model group received vehicle under a same condition. During the treatment period, the adenine-containing diet was continued. Mouse survival was monitored until the end of the experiment.

[2] = tested on: TGF-β1-induced HK-2 cells; experiment: RT-PCR of fibrosis markers in TGF-β1-induced HK-2 cells; type: cell-based, human; conditions: 10 ng/ml TGF-β1 + LY2922470 10, 50, 500 nM, 48 hours, FIG. 7
Experimental: • Group A: Control • Group B: TGF-β1 (10 ng/ml) • Group C: TGF-β1 (10 ng/ml)+LY (10 nM) • Group D: TGF-β1 (10 ng/ml)+LY (50 nM) • Group E: TGF-1 (10 ng/ml)+LY (500 nM)
(§1) HK-2 cells were cultured in MEM supplemented with 10% FBS and 1% penicillin-streptomycin solution. The HK-2 cells were taken from liquid nitrogen and quickly thawed in a 37° C. water bath, gently agitated to thaw the cryopreservation medium. After thawing, the cell suspension was transferred to a centrifuge tube containing 3 mL of culture medium and centrifuged at 1000 rpm for 5 min at room temperature to collect the cells. The supernatant was discarded. The cell pellet was resuspended in complete medium (10% FBS) and seeded into culture dishes. The cells were gently pipetted to ensure uniform distribution and incubated at 37° C. with 5% CO2 and saturated humidity.
HK-2 cells in a logarithmic growth phase and with good viability were seeded into 24-well plates at a density of 1×10^5 cells/well. Once the cells reached 40-50% confluence, treatments were applied according to the grouping described above: Group A: HK-2 cells were cultured normally; Group B was treated with 10 ng/ml TGF-β1; Group C was treated with 10 ng/ml TGF-β1 and 10 nM LY2922470; Group D was treated with 10 ng/ml TGF-β1 and 50 nM LY2922470; and Group E was treated with 10 ng/ML TGF-β1 and 500 nM LY2922470. […]

[3] = tested on: high glucose-induced HK-2 cells; experiment: RT-PCR of fibrosis markers in high glucose-induced HK-2 cells; type: cell-based, human; conditions: 25 mM D-glucose + LY2922470 10, 50, 500 nM, 48 hours, FIG. 8
Experimental: • Group A: Control • Group B: HG (25 mM) • Group C: HG (25 mM)+LY (10 nM) • Group D: HG (25 mM)+LY (50 nM) • Group E: HG (25 mM)+LY (500 nM)
as §1
Once cells reached 40%-50% confluency, they were treated according to the grouping described above: Group A received normal HK-2 culture; Group B was treated with 25 mM D-glucose (high glucose); Group C was treated with 25 mM D-glucose and 10 nM LY2922470; Group D was treated with 25 mM D-glucose and 50 nM LY2922470; and Group E was treated with 25 mM D-glucose and 500 nM LY2922470. After 48 hours of culture, samples were collected from each group for RT-PCR analysis.

CC#C[C@@H](CC(=O)O)c1ccc(OCc2ccc(CN3CCCc4cccc(OC)c43)s2)cc1 [LY2922470]
Survival Rate (%) ([1]; LY2922470 10 mg/kg p.o. QD): 0% | Count after Drug Administration (surviving mice) ([1]; LY2922470 10 mg/kg p.o. QD): 0 | Day of adenine feeding by which all mice had died ([1]; LY2922470 10 mg/kg p.o. QD, deaths began on day 20): ≤ 27 days | Survival Rate (%) ([1]; LY2922470 30 mg/kg p.o. QD, 30 mg/kg): 100% | Survival Rate (%) ([1]; LY2922470 30 mg/kg p.o. QD, listed as LY): 100% | Count after Drug Administration (surviving mice) ([1]; LY2922470 30 mg/kg p.o. QD): 12 | Final survival rate relative to the TAK875 group ([1]; LY2922470 30 mg/kg vs TAK875 30 mg/kg): double | Survival Rate (%) ([1]; LY2922470 60 mg/kg p.o. QD, listed as LY): 50% | Count after Drug Administration (surviving mice) ([1]; LY2922470 60 mg/kg p.o. QD): 6 | Dose with optimal effect (survival) ([1]; from Table 1 survival data, p.o.): 30 mg/kg/day | Expression level of Fibronectin (RT-PCR) compared to the TGF-β1 group [2]: dose-dependent decrease | Expression level of α-SMA (RT-PCR) compared to the TGF-β1 group [2]: dose-dependent decrease | Expression level of Fibronectin (RT-PCR) compared to the high-glucose group [3]: reduced | Expression level of α-SMA (RT-PCR) compared to the high-glucose group [3]: reduced
